Measured values from ChEMBL document CHEMBL1201862, “PubChem BioAssay data set” (2004).
Calls of active or inactive are those of the source.

Tests used:
[1] = system: BJ; assay: BJ-TERT fibroblast viability loss – cell-based, RAS-independent, luminescence, dose response (AID 1933); format: functional, Homo sapiens; conditions: Homo sapiens, BJ
[2] = system: HT-1080; assay: HT1080 cell viability loss – fluorescence readout (AID 620); format: functional, cell-based; conditions: Homo sapiens
[3] = molecular target: Luciferin 4-monooxygenase (Photinus pyralis, UniProt P08659); assay: Counter Screen for Luciferase-based Assay Positives. [Related pubchem assays: 620, 618, 411 ]
Sequence of Luciferin 4-monooxygenase (P08659 whole entry): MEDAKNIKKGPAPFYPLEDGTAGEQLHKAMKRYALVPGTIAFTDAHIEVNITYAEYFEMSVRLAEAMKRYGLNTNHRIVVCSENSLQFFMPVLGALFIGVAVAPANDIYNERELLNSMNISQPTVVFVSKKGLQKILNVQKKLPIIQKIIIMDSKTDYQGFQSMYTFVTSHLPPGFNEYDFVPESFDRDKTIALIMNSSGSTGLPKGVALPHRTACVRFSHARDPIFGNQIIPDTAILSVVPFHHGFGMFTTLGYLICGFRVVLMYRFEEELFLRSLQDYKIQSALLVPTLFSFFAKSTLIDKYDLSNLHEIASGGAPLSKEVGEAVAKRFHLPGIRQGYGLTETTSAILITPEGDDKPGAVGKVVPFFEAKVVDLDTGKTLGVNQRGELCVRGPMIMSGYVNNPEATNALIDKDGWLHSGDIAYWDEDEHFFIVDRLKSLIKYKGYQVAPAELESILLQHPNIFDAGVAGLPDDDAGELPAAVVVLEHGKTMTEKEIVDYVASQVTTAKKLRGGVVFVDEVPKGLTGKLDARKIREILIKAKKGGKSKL

[4] = system: BJ; assay: BJ-TERT-LT-ST fibroblast viability loss – cell-based, RAS-independent, luminescence, dose response (AID 1935); format: functional, Homo sapiens; conditions: Homo sapiens, BJ;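 also: BJ fibroblasts immortalized with TERT plus LT and ST oncogenes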
[5] = HEK-293T viability loss after treatment – luminescence, T-cell screen hits, cytotoxicity control for TCR NF-kB inhibitor project, dose response (AID 489026); format: functional, cell-based;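 also: cells exposed to compound about 14 hours before the viability readout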
[6] = system: BJ; assay: cells; format: functional, cell-based, Homo sapiens; conditions: Homo sapiens, BJ
[7] = DRD fibroblast viability loss – cell-based, non-viral oncogenic, luminescence, dose response (AID 1934); format: functional; conditions: Homo sapiens
[8] = molecular target: T1, Estrogen receptor beta (Homo sapiens, UniProt Q92731); assay: blockers of SRC-3 recruitment to ERβ – biochemical, ELISA, streptavidin-HRP readout, orthogonal assay, confirmation (AID 1060)
T1 sequence (Q92731 whole entry): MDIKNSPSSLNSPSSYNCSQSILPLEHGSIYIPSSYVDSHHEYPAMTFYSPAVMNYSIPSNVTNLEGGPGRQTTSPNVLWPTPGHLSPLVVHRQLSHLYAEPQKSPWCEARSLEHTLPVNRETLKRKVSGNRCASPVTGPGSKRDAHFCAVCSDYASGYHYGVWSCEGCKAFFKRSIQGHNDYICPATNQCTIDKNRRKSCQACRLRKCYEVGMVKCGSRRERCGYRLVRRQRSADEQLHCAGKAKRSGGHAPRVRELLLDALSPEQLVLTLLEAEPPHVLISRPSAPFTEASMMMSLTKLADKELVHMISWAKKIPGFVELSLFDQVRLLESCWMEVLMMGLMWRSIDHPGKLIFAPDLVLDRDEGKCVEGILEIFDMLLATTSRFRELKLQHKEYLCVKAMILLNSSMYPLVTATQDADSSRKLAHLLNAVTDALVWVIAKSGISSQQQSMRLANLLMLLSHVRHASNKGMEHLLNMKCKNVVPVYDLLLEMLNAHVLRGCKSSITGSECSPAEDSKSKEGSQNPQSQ

[9] = molecular target: T1, Estrogen receptor beta
[10] = molecular target: DNA dC->dU-editing enzyme APOBEC-3A (Homo sapiens, UniProt P31941); assay: Dose Response confirmation of small molecule APOBEC3A DNA Deaminase Inhibitors via a fluorescence-based single-stranded DNA deaminase assay. [Related pubchem assays (depositor defined):AID493011, AID493024]; format: functional
Sequence of DNA dC->dU-editing enzyme APOBEC-3A (P31941 whole entry): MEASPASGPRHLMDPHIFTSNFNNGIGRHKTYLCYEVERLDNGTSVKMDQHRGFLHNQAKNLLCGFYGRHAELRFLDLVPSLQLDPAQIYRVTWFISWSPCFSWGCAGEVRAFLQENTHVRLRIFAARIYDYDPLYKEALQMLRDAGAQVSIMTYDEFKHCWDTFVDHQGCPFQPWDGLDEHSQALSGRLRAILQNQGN

[11] = molecular target: DNA dC->dU-editing enzyme APOBEC-3G (Homo sapiens, UniProt Q9HC16); format: functional;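 also: Dose-response counterscreen measuring inhibition of APOBEC3G DNA deaminase activity, run while confirming APOBEC3A inhibitors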
Sequence of DNA dC->dU-editing enzyme APOBEC-3G (Q9HC16 whole entry): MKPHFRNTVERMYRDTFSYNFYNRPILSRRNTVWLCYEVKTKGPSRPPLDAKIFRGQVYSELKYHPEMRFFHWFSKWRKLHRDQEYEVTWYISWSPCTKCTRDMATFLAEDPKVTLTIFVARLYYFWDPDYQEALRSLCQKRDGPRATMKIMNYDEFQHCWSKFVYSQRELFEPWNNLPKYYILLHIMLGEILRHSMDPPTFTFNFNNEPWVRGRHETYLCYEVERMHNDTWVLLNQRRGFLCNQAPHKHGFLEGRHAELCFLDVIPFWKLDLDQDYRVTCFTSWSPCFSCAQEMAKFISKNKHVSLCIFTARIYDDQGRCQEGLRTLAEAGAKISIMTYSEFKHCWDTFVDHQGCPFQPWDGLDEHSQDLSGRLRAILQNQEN

[12] = molecular target: Peroxisome proliferator-activated receptor gamma/Nuclear receptor corepressor 2 (Homo sapiens, UniProt P37231+Q9Y618); format: functional
[13] = molecular target: Photoreceptor-specific nuclear receptor (Homo sapiens, UniProt Q9Y5X4); format: functional;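 also: potency for compounds that break the NR2E3 corepressor complex and count as activators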
Sequence of Photoreceptor-specific nuclear receptor (Q9Y5X4 whole entry): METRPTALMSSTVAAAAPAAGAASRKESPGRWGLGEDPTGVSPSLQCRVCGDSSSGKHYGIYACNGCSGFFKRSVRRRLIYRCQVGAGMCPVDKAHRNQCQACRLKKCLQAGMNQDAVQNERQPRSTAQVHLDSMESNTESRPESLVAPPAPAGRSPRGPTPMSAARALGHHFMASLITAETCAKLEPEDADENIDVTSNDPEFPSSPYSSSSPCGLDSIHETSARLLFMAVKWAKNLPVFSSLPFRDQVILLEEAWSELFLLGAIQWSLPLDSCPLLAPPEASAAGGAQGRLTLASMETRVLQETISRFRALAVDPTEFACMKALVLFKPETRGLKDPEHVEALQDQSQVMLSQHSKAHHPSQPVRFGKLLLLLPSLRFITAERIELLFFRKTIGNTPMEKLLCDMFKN

[14] = molecular target: Lysosomal acid glucosylceramidase (Homo sapiens, UniProt P04062); assay: Dose response cell-based high throughput screening assay to identify enhancers of beta-glucosidase activity. [Related pubchem assays: 784 ]; format: functional
Sequence of Lysosomal acid glucosylceramidase (P04062 whole entry): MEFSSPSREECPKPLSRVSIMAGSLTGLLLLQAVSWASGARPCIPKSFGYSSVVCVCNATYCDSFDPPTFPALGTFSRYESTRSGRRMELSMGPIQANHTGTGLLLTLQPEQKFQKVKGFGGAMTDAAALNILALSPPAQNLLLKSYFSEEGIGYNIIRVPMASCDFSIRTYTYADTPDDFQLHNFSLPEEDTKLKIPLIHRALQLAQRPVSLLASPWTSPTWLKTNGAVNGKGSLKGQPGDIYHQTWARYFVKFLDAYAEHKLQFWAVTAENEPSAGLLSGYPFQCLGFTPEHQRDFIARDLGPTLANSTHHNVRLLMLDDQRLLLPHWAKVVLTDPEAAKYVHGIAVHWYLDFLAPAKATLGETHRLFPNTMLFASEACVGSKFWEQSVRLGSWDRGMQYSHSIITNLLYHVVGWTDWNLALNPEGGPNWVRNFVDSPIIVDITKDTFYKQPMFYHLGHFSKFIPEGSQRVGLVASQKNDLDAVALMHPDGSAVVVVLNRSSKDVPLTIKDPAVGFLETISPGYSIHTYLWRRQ

[15] = molecular target: Cytochrome P450 2C19 (Homo sapiens, UniProt P33261); assay: Cytochrome panel assay with activity outcomes. Panel member name: p450-cyp2c19 Compounds with AC50 equal or less than 10 uM are considered active; format: functional; conditions: read-out: AC50
Sequence of Cytochrome P450 2C19 (P33261 whole entry): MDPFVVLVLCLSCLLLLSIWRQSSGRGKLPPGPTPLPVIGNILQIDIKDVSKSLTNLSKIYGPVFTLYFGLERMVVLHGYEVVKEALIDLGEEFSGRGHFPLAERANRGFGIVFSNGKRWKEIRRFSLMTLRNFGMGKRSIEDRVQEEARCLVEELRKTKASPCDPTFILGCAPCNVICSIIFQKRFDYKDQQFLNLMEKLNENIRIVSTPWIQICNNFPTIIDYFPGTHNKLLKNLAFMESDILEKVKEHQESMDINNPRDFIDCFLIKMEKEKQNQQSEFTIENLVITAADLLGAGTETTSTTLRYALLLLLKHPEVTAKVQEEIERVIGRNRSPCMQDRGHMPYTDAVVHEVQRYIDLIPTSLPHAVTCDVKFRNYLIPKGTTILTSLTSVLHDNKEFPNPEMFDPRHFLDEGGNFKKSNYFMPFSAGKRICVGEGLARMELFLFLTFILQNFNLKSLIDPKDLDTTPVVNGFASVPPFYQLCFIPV

[16] = molecular target: Protein-tyrosine kinase 2-beta (Homo sapiens, UniProt Q14289);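 also: potency of inhibitors of PYK2 kinase phosphorylation of poly-GT substrate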
Sequence of Protein-tyrosine kinase 2-beta (Q14289 whole entry): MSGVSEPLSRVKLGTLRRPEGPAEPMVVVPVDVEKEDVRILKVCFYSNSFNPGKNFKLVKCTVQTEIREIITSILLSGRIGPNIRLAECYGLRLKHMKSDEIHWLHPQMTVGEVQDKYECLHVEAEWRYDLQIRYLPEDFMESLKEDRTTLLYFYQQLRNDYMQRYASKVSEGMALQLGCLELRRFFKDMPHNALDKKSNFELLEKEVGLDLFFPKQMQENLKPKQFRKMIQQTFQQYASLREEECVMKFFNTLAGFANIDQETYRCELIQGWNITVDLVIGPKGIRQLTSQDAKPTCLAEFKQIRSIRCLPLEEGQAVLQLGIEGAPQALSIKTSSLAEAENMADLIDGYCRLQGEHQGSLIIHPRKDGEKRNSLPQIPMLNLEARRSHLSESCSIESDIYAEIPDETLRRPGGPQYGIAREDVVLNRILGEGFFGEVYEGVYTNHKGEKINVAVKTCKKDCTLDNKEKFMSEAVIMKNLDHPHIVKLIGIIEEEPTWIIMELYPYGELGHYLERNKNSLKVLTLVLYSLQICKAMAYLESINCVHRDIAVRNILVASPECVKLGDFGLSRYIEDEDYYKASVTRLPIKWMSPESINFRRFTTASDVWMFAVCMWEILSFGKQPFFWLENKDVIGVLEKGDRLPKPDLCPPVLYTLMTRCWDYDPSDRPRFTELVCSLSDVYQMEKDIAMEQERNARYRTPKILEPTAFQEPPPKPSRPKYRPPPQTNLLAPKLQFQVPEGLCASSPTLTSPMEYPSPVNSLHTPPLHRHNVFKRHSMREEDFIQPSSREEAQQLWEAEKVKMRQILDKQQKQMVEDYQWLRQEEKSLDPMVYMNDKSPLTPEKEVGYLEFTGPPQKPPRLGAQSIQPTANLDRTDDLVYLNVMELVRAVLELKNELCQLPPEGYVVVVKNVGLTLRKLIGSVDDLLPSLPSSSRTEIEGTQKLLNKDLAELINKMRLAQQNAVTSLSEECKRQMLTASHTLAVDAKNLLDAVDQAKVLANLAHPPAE

[17] = molecular target: Cytochrome P450 2C9 (Homo sapiens, UniProt P11712)
Sequence of Cytochrome P450 2C9 (P11712 whole entry): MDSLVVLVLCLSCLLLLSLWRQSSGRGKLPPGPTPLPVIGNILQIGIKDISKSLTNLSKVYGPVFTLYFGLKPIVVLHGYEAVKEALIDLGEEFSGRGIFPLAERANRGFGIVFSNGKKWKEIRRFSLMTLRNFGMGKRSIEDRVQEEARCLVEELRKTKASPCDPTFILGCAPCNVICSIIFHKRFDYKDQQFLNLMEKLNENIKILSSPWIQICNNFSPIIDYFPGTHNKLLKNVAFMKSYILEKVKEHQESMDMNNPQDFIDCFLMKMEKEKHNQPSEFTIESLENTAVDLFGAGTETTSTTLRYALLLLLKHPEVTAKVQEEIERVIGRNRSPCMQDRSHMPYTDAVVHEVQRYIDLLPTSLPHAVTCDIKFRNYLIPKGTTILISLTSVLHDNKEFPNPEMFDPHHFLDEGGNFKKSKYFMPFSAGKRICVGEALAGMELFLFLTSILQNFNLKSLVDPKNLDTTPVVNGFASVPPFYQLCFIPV

[18] = system: H4; assay: Luminescence Cell-Based Dose Response HTS to Identify Activators of 5'UTR Stem-Loop Driven Prion Protein mRNA Translation in H4 Neuroglioblastoma Cells. [Related pubchem assays: 1829 (Project Summary), 1814 (Primary HTS)]; format: functional; conditions: Homo sapiens
[19] = Luminescence Cell-Based Dose Response to Identify Activators of Luciferase Translation or Activity in H4-C Neuroglioblastoma Cells. [Related pubchem assays: 1829 (Project Summary), 1814 (Primary HTS)]; format: functional
[20] = molecular target: Prothrombin (Homo sapiens, UniProt P00734); assay: Thrombin 1536 HTS Dose Response Confirmation. [Related pubchem assays: 1046 (Thrombin 1536 HTS; hits were confirmed in this assay)]; format: functional
[21] = Luminescence Cell-Based Dose Confirmation to Identify Activators of 5'UTR Stem-Loop Driven Alpha-Synuclein mRNA Translation in H4 Neuroglioblastoma Cells. [Related pubchem assays: 1829 (Project Summary), 1814 (Primary HTS)]; format: functional
[22] = Luminescence Cell-Based Dose Response to Identify Activators of 5'UTR Stem-Loop Driven Prion Protein mRNA Translation in H4-C Neuroglioblastoma Cells. [Related pubchem assays: 1829 (Project Summary), 1814 (Primary HTS)]; format: functional
[23] = system: HEK293; assay: Fluorescence-based counterscreen for potentiators or agonists of NPY-Y2: cell-based high-throughput dose response assay to identify inhibitors of cyclic nucleotide gated ion channel (CNGC) activity. In this assay, the parental HEK293 cell line transfected with a cyclic-nucleotide gated ion channel (CNGC)-based cAMP sensor is used to measure inhibition of isoproterenol-induced CNGC activity by test compound.; format: functional; conditions: Homo sapiens;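 also: stimulus is 1 µM isoproterenol at EC100 plus PDE inhibitor Ro 20-1724 at 25 µM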
[24] = system: Streptococcus sp. 'group A'; assay: Streptococcus pyogenes SK(-)GAS viability under kanamycin – luminescence, BacTiterGlo, confirmation, counter-screen for streptokinase expression inhibitor project, dose response (AID 1900); format: functional, organism-based
[25] = system: Streptococcus; assay: GAS UMAA2166 growth inhibition – luminescence, BacTiterGlo, counter-screen for streptokinase expression inhibitor project, dose response (AID 1915); format: functional, organism-based;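 also: potency for reduction of bacterial viability or growth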
[26] = molecular target: T2, Neuropeptide Y receptor type 1 (Homo sapiens, UniProt P25929); assay: Fluorescence-based counterscreen for agonists of NPY-Y2: cell-based high-throughput dose response assay for agonists of NPY-Y1.; format: functional
T2 sequence (P25929 whole entry): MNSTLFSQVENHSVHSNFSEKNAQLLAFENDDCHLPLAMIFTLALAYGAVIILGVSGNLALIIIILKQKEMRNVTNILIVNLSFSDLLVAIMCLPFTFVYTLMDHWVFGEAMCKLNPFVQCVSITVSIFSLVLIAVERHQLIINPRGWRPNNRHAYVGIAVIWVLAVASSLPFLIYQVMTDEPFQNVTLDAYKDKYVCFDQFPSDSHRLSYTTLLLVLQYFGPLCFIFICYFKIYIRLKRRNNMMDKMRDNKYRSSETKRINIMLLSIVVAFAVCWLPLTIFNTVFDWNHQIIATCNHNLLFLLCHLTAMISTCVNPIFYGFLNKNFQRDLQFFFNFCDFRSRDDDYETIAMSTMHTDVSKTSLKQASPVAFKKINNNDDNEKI

[27] = molecular target: T3, Neuropeptide Y receptor type 2 (Homo sapiens, UniProt P49146); assay: Fluorescence-based cell-based high-throughput dose response assay for agonists of NPY-Y2. [Related pubchem assays: 1703 (Screening assay (CNGC inhibitors).), 1359 (Screening assay (NPY-Y2 potentiators or agonists).), 1304 (Screening assay (NPY-Y1 potentiators or agonists).), 1710 (Screening assay (NPY-Y2 agonists).), 1791 (Summary AID.)]; format: functional
T3 sequence (P49146 whole entry): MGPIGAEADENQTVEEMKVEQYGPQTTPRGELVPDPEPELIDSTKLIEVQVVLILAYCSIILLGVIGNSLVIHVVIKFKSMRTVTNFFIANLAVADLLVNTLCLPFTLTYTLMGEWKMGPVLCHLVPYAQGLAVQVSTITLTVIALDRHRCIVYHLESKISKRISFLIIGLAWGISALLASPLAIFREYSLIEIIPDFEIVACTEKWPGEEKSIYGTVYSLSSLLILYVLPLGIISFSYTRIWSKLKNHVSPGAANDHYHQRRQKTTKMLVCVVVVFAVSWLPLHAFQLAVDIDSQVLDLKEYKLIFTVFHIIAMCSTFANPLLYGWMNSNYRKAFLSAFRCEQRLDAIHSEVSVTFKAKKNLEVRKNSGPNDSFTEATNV

[28] = system: INS1; assay: INS-1E survival protection against cytokine death – cell-based, luminescence, retest, dose response (AID 449756); format: functional; conditions: Rattus norvegicus;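 also: cell death triggered by IL-1 beta plus TNF-alpha plus IFN-gamma mixture; protective hits raise ATP signal compared with cytokine alone wells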
[29] = molecular target: T4, Streptokinase A (Streptococcus pyogenes serotype M1, UniProt P10520); assay: viability-normalized secreted streptokinase activity reduction – plasminogen activation absorbance, OD405, dose response (AID 1914); format: functional, Streptococcus pyogenes M1 GAS;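 also: secreted streptokinase activity via plasminogen activation per viability signal from cell pellet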
T4 sequence (P10520 whole entry): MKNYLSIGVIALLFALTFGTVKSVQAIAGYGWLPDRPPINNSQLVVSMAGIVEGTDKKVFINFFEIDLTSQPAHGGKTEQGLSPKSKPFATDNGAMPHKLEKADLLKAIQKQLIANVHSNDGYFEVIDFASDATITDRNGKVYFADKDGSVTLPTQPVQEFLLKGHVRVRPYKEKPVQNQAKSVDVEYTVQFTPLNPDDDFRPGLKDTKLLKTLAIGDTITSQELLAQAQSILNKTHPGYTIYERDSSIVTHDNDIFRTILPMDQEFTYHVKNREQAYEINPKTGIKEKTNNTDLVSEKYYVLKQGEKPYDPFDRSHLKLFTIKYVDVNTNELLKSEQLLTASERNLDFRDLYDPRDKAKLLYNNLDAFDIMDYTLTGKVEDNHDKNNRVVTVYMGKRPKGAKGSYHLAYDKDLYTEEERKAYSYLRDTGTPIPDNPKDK

With CCCC(=O)C1=C(Nc2ccc(OC)cc2OC)CC(C)(C)CC1=O the EC50 [1] was 13.1 µM (active), the EC50 [2] was 17.3 µM (active) and the EC50 [3] was 0.55 µM (active). The EC50 [4] was 4.43 µM (active), the IC50 [5] was > 80 µM (inactive) and the EC50 [6] was 29.9 µM (active). For the same compound, the EC50 [7] was 4.69 µM (active).
For COCCCn1c(Cc2csc(Nc3cccc(Cl)c3)n2)nnc1SCC(=O)OC1CCCCC1, the IC50 [8] was 0.0434 µM (not active), the IC50 [9] was < 1.56 µM (active) and the IC50 [10] was 20.8 µM (active). For the same compound, the IC50 [11] was 38.8 µM (active).
With COc1cccc(CNC(=O)COC(=O)/C(C#N)=C/c2ccc(N(C)C)cc2)c1 the IC50 [12] was 29.4 µM (not active) and the IC50 [13] was > 39.8 µM (not active).
For CCOC(=O)c1ccc(NC(=O)CSC2=NC(=O)C(CC)C(=O)N2)cc1 (centres undefined), the EC50 [14] was > 10 µM (not active).
With Cc1ccc(C(=O)COC(=O)c2ccc3c(c2)C(=O)N(c2cccc4ncccc24)C3=O)cc1C the AC50 [15] was 15.8 µM (inconclusive), the IC50 [16] was 7.66 µM (active) and the AC50 [17] was 0.708 µM (inconclusive).
For Cc1ccc(-n2c(C)cc(C(=O)CSc3nncs3)c2C)cc1, the EC50 [18] was < 0.1 µM (active), the EC50 [19] was 0.34 µM (active) and the IC50 [20] was > 50 µM (not active). For the same compound, the EC50 [21] was 0.346 µM (active) and the EC50 [22] was 0.332 µM (active).
For O=C(/C(=N/Nc1cccc([N+](=O)[O-])c1)C(=O)C(F)(F)F)c1ccc(Br)cc1, the EC50 [23] was 12.2 µM (not active), the EC50 [24] was 7.63 µM (active) and the EC50 [25] was 5.97 µM (active). For the same compound, the EC50 [26] was 10.6 µM (not active), the EC50 [27] was 12.1 µM (not active) and the AC50 [28] was 6.21 µM (active). For the same compound, the EC50 [29] was 6.23 µM (active).
